We go through 2 molecules from US10172962B2, “Macromolecular delivery systems for non-invasive imaging, evaluation and treatment of arthritis and other inflammatory diseases” (University of Utah Research Foundation, priority 2004, dated 2019).

SMILES strings stand for the structures.

Common to all, as to assay type: in vivo, rat
Data set [1] concerns AIA rats. The experiment in a line: Treatment of AIA rats: ankle joint swelling (caliper diameter). The method, then: (§1) Male Lewis rats (175-200 g) were obtained from Charles River Laboratories (Portage, Mich.) and allowed to acclimate for at least one week. To induce arthritis, Mycobacterium Tuberculosis H37Ra (1 mg) and LA (5 mg) were mixed in paraffin oil (100 μL), sonicated and s.c. injected into the base of the rat's tail (20). The rats were then randomized into 3 rats/group. The progression of the joint inflammation was followed by measuring the diameter of the ankle joint with calipers. Special care was given to the rats as the inflammation developed to ensure availability and access to water and food. The MRI contrast agents used for the study were injected directly into the jugular vein while the animal was anesthetized with Ketamine and Xylazine.
. Hydrazine was used as the targeting moiety, as it may bind to negative charged moieties on cartilage. The anti-arthritic drug, dexamethasone, was linked to the polymer backbone (P-Dex) via a pH sensitive hydrozone bond as illustrated in FIG. 6. The polymer with the hydrazine and dexamethasone attached was then injected into AIA rats (4/group) on day 13 after the induction of arthritis. A single dose of 10 mg (P-Dex)/kg was given. […]

Data set [2] concerns AIA rats. The experiment in a line: Treatment of AIA rats: bone mineral density by peripheral dual x-ray absorptiometry. As to conditions: 7/group, FIG. 8. The procedure:
The bone mineral density (BMD) of the bones in the arthritic joints was measured by peripheral dual x-ray absorptiometry (pDXA, Norland Medical Systems) adapted for small animals. For this the intact hind limbs were used and the scan region included the ankle and foot bones. The coefficient of variation between measurements was less than 1%.
One of the significant impacts of rheumatoid arthritis inflammation is the damage to the bone in the joints, which is evident in FIG. 8 of the animals with no treatment (saline). […] However, such improvement can be greatly strengthened if Dex is conjugated to HPMA copolymer. […] A more dynamic factor to consider in the bone metabolism is the extent of bone erosion. The bone eroded surface directly correlates with the recruitment and activity of osteoclasts, which are the cells responsible for bone resorption and the development of bone damage. In FIG. 9, the bone erosion surface data for all the treatment groups is summarized. […] The histology analysis of the arthritic joints with different treatments also confirmed the superiority of the P-Dex treatment (FIG. 10).

The subject of data set [3] is healthy rats. The experiment in a line: Evans blue dye injection in healthy control rats. As to conditions: EB 10 mg/kg tail vein. The procedure: (§2) Evans blue dye (EB, 10 mg/kg in saline) was injected into healthy and AIA rats via the tail vein. The extravasation and accumulation of dye in the areas of joint inflammation could be visually observed as appearance of the blue pigment. Photographs of the ankle and paws were taken before and 8 hours after injection.
For this experiment, EB was injected into the rats 15 days after injection of the adjuvant. By this time, there is a robust inflammatory reaction evident in the ankle joints. […] Some deep blue spots were also observed on some digits of the paw. Photographs taken before and after injection of the EB dye confirm that the areas with dye accumulation correspond to those with marked inflammation.

Data set [4] relates to AIA rats. The experiment in a line: Visualization of plasma albumin accumulation with Evans blue dye in AIA rats. The method, then:
as §1, §2
For this experiment, EB was injected into the rats 15 days after injection of the adjuvant. By this time, there is a robust inflammatory reaction evident in the ankle joints. […] Some deep blue spots were also observed on some digits of the paw. […]

As for `C[C@@H]1C[C@H]2[C@@H]3CCC4=CC(=O)C=C[C@]4(C)[C@@]3(F)[C@@H](O)C[C@]2(C)[C@@]1(O)C(=O)COP(=O)(O)O` [Dex, Dexamethasone sodium phosphate], in data set [1] (P-Dex single dose 10 mg/kg day 13, Dex same dose divided in 4 daily doses day 13-16), the “ankle joint swelling after the injections on day 13” value is recorded as “dramatic decrease of ankle joint swelling”. Also, the “course of inflammation after cessation of the daily Dex injections” value in data set [1] (P-Dex single dose day 13, Dex 4 daily doses day 13-16) is “the inflammation rapidly got worse”. For the same molecule, the “bone mineral density (BMD) / bone preservation of the arthritic joints” value in data set [2] is “can slow bone erosion”.

As to `Cc1cc(-c2ccc(/N=N/c3ccc4c(S(=O)(=O)O)cc(S(=O)(=O)O)c(N)c4c3O)c(C)c2)ccc1/N=N/c1ccc2c(S(=O)(=O)O)cc(S(=O)(=O)O)c(N)c2c1O` [EB, Evans blue], the “localization of dye to joint areas” value in data set [3] is reported as “the dye was not localized to joint areas”. In addition, the “accumulation of dye in inflamed paws” value in data set [4] (AIA rats, EB 10 mg/kg tail vein, 15 days after adjuvant) was “gradual accumulation of blue color in the inflamed hind paw and front paws”. The “nonspecific transfer of dye to other tissues” value in data set [4] (organs including liver and heart) is recorded as “a slight blue staining was evident in some organs”.
